According to patent publication US20250066419A1 (priority 2021, published 2025):

Tests used:
[1] = test system: MoDCs
[2] = test system: BMDCs
[3] = test system: dendritic cells

With “FITC-linker-YGRRARRRRRRIYSIKDTKLGN-biotin [CTP-SEB2]” the “penetration of peptide into MoDCs” value [1] was “penetrated MoDCs much more”, the “permeability effect (degree of fluorescent labeling of cells)” value [2] was “permeability effect is greater” and the “peptide permeability in DCs (peptide-FITC in CD11c+ CD80+ population)” value [3] was “permeated a large amount of peptide”.
